Reference: patent publication US10322132B2, “Prevention or treatment of uratic or gouty diseases” (SHANTON PHARMA CO., LTD., priority 2015, dated 2019)

Assay: Uric acid-lowering test in monkeys having hyperuricemia (UA subcutaneous injection)
Assay type: in vivo, cynomolgus monkeys
Conditions: cynomolgus monkey, serum, sc; uric acid (UA) by subcutaneous injection at the nape, cynomolgus monkeys from the model group; read-out: half-life (t½z) (converted)
Procedure: The experiment was conducted by reference to Komoriya K, Osada Y, Hasegawa M, Horiuchi H, Kondo S, Couch R C, Griffin T B. Hypouricemic effect of allopurinol and the novel xanthine oxidase inhibitor TEI-6720 in chimpanzees. Eur J Pharmacol. 1993 Dec. 21; 250(3): 455-60.
In the Model group, three non-naïve cynomolgus monkeys (1 #, 2 # and 3 #) were administered with UA by subcutaneous injection at the nape. Blood was collected from the vein before UA administration and 0.5 h, 1 h, 2 h, 4 h, 6 h and 24 h after UA administration. The blood was left still at room temperature. The serum was collected by centrifugation. The content of serum uric acid was measured.
In the Administration group, three non-naïve cynomolgus monkeys (1 #, 2 # and 3 #) were administered with the test sample by intravenous injection after 2 weeks of clearance. Blood was collected from the vein before administration and 2 h after administration of test sample. Then, the monkeys were administered with UA by subcutaneous injection at the nape and blood was collected from the vein 1 h, 2 h and 4 h after the UA administration. The blood was left still at room temperature. The serum was collected by centrifugation. The content of serum uric acid was measured. Reduction rate of serum uric acid in healthy monkeys administered with test sample=(average uric acid content before administration−average uric acid content 2 h after administration of test sample)/average uric acid content before administration*100%, Reduction rate of serum uric acid in monkeys having hyperuricemia after administration of test sample=(uric acid content after UA administration in the model group−uric acid content after UA administration in the administration group)/uric acid content in the model group*(100%).
That was, the samples were collected before administration, 2 h after administration of test sample and 1 h, 2 h and 4 h after UA administration for determination of the serum uric acid content. The contents of serum uric acid in the model group and the administration group and the reduction rates of serum uric acid were shown in the following Tables 3-1, 3-2 and 3-3, respectively.

half-life: 32.4 min
Compound: O=c1[nH]c(=O)c2[nH]c(=O)[nH]c2[nH]1 [uric acid (UA), uric acid]
